In patent publication US20240190880A1 (THE REGENTS OF THE UNIVERSITY OF MICHIGAN, priority 2021, published 2024):

biological target: T1, ER (Homo sapiens, UniProt P03372); assay: ER degradation activity, in-cell western blot analysis in T47D cells; assay type: cell-based; details: 16 hours, Table A does not say which cell line (T47D or MCF7), read-out: Potency (DC50)
T1 construct: host or cells: T47D and MCF7 human breast cancer cells
T1 sequence (P03372 1-595): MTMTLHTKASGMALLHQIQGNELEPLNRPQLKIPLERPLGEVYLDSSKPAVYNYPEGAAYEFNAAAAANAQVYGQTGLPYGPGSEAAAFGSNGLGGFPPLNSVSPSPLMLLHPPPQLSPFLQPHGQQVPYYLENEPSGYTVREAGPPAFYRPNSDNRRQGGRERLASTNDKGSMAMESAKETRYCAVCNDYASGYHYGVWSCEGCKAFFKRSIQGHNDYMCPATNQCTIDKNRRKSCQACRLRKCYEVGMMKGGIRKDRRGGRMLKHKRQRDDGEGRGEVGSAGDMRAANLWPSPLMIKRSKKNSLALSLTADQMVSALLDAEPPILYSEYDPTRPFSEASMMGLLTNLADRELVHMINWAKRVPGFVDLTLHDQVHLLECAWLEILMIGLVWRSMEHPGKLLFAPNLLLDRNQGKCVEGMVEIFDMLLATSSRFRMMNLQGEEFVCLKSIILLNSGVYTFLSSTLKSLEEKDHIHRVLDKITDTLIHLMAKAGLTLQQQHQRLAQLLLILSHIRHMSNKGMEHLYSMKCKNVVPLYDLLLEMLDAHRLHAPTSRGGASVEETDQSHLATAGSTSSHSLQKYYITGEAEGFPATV
Procedure, shortened: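 Read-out is near-infrared fluorescence from an in-cell western, expressed as ER percentage relative to untreated and DMSO controls taken as 100%. T47D breast cancer cells received compound for 16 h in 0.5% DMSO.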

| DC50 [nM] | SMILES |
| --- | --- |
| 10 to 100 | O=C1CCC(N2C(=O)c3cc4c(cc3C2=O)CN(CC(=O)N2CCC3(CC2)CCN(c2ccc([C@@H]5c6ccc(O)cc6CC[C@@H]5c5ccc(F)cc5)cc2)CC3)CC4)C(=O)N1 (mixture of isomers) [E 165, rac-2-(2,6-dioxopiperidin-3-yl)-6-(2-(9-(4-((1R,2S)-2-(4-fluorophenyl)-6-hydroxy-1,2,3,4-tetrahydronaphthalen-1-yl)phenyl)-3,9-diazaspiro[5.5]undecan-3-yl)-2-oxoethyl)-5,6,7,8-tetrahydro-1H-pyrrolo[3,4-g]isoquinoline-1,3(2H)-dione] |
| > 100 | O=C1CCC(N2C(=O)c3cc4c(cc3C2=O)CN(CC2CCN(C(=O)C3CN(c5ccc([C@@H]6c7ccc(O)cc7CC[C@@H]6c6ccccc6)cc5)C3)CC2)C4)C(=O)N1 (stereo partly drawn) [E 201, 2-(2,6-dioxopiperidin-3-yl)-6-((1-(1-(4-((1R,2S)-6-hydroxy-2-phenyl-1,2,3,4-tetrahydronaphthalen-1-yl)phenyl)azetidine-3-carbonyl)piperidin-4-yl)methyl)-6,7-dihydropyrrolo[3,4-f]isoindole-1,3(2H,5H)-dione] |
| > 100 | O=C1CCC(N2C(=O)c3cc4c(cc3C2=O)CN(Cc2ccc(N3CCN(c5ccc([C@@H]6c7ccc(O)cc7CC[C@@H]6c6ccccc6)cc5)CC3)nc2)C4)C(=O)N1 (stereo partly drawn) [E 311, 2-(2,6-dioxopiperidin-3-yl)-6-((6-(4-(4-((1R,2S)-6-hydroxy-2-phenyl-1,2,3,4-tetrahydronaphthalen-1-yl)phenyl)piperazin-1-yl)pyridin-3-yl)methyl)-6,7-dihydropyrrolo[3,4-f]isoindole-1,3(2H,5H)-dione] |
| 10 to 100 | O=C1CCC(N2C(=O)c3cc4c(cc3C2=O)CN(C(=O)CN2CC3(CCN(c5ccc([C@@H]6c7ccc(O)cc7CC[C@@H]6c6ccccc6)cc5)CC3)C2)C4)C(=O)N1 (mixture of isomers) [E 125, Rac-2-(2,6-dioxopiperidin-3-yl)-6-(2-(7-(4-((1R,2S)-6-hydroxy-2-phenyl-1,2,3,4-tetrahydronaphthalen-1-yl)phenyl)-2,7-diazaspiro[3.5]nonan-2-yl)acetyl)-6,7-dihydropyrrolo[3,4-f]isoindole-1,3(2H,5H)-dione] |
| 10 to 100 | C[C@@H]1Cc2c([nH]c3ccccc23)[C@@H](c2c(F)cc(C3CCN(C(=O)C4CCC(N5Cc6cc7c(cc6C5)C(=O)N(C5CCC(=O)NC5=O)C7=O)CC4)CC3)cc2F)N1CC(F)F (stereo partly drawn) [E 348, 6-(4-(4-(4-((1R,3R)-2-(2,2-difluoroethyl)-3-methyl-2,3,4,9-tetrahydro-1H-pyrido[3,4-b]indol-1-yl)-3,5-difluorophenyl)piperidine-1-carbonyl)cyclohexyl)-2-(2,6-dioxopiperidin-3-yl)-6,7-dihydropyrrolo[3,4-f]isoindole-1,3(2H,5H)-dione] |
| < 10 | O=C1CCC(N2C(=O)c3cc4c(cc3C2=O)CN([C@H]2CC[C@H](C(=O)N3CC(Oc5ccc([C@H]6c7ccc(O)cc7CC[C@H]6c6ccccc6)cc5)C3)CC2)C4)C(=O)N1 (stereo partly drawn) [E 385, 2-(2,6-dioxopiperidin-3-yl)-6-((1S,4r)-4-(3-(4-((1S,2R)-6-hydroxy-2-phenyl-1,2,3,4-tetrahydronaphthalen-1-yl)phenoxy)azetidine-1-carbonyl)cyclohexyl)-6,7-dihydropyrrolo[3,4-f]isoindole-1,3(2H,5H)-dione] |

The next lines start with the compound.

| SMILES | DC50 [nM] |
| --- | --- |
| C[C@@H]1Cc2c([nH]c3ccccc23)[C@@H](c2c(F)cc(N3CCC4(CC3)CC(C(=O)N3CCC(N5Cc6cc7c(cc6C5)C(=O)N(C5CCC(=O)NC5=O)C7)CC3)C4)cc2F)N1CC(F)F (stereo partly drawn) [E 101, 3-(6-(1-(7-(4-((1R,3R)-2-(2,2-difluoroethyl)-3-methyl-2,3,4,9-tetrahydro-1H-pyrido[3,4-b]indol-1-yl)-3,5-difluorophenyl)-7-azaspiro[3.5]nonane-2-carbonyl)piperidin-4-yl)-1-oxo-3,5,6,7-tetrahydropyrrolo[3,4-f]isoindol-2(1H)-yl)piperidine-2,6-dione] | < 10 |
| C[C@@H]1Cc2c([nH]c3ccccc23)[C@@H](c2c(F)cc(N3CC(C(=O)N4CC(N5Cc6cc7c(cc6C5)C(=O)N(C5CCC(=O)NC5=O)C7=O)C4)C3)cc2F)N1CC(F)F (stereo partly drawn) [E 229, 6-(1-(1-(4-((1R,3R)-2-(2,2-difluoroethyl)-3-methyl-2,3,4,9-tetrahydro-1H-pyrido[3,4-b]indol-1-yl)-3,5-difluorophenyl)azetidine-3-carbonyl)azetidin-3-yl)-2-(2,6-dioxopiperidin-3-yl)-6,7-dihydropyrrolo[3,4-f]isoindole-1,3(2H,5H)-dione] | 10 to 100 |
| C[C@@H]1Cc2c([nH]c3ccccc23)[C@@H](c2c(F)cc(N3CC(C(=O)N4CCC(CN5Cc6cc7c(cc6C5)C(=O)N(C5CCC(=O)NC5=O)C7=O)CC4)C3)cc2F)N1CC(F)F (stereo partly drawn) [E 121, 6-((1-(1-(4-((1R,3R)-2-(2,2-difluoroethyl)-3-methyl-2,3,4,9-tetrahydro-1H-pyrido[3,4-b]indol-1-yl)-3,5-difluorophenyl)azetidine-3-carbonyl)piperidin-4-yl)methyl)-2-(2,6-dioxopiperidin-3-yl)-6,7-dihydropyrrolo[3,4-f]isoindole-1,3(2H,5H)-dione] | < 10 |
| C[C@@H]1Cc2c([nH]c3ccccc23)[C@@H](c2c(F)cc(N3CCC4(CCN(C(=O)CN5Cc6cc7c(cc6C5)C(=O)N(C5CCC(=O)NC5=O)C7=O)CC4)CC3)cc2F)N1CC(F)F (stereo partly drawn) [E 112, 6-(2-(9-(4-((1R,3R)-2-(2,2-difluoroethyl)-3-methyl-2,3,4,9-tetrahydro-1H-pyrido[3,4-b]indol-1-yl)-3,5-difluorophenyl)-3,9-diazaspiro[5.5]undecan-3-yl)-2-oxoethyl)-2-(2,6-dioxopiperidin-3-yl)-6,7-dihydropyrrolo[3,4-f]isoindole-1,3(2H,5H)-dione] | < 10 |
| C[C@@H]1Cc2c([nH]c3ccccc23)[C@@H](c2c(F)cc(N3CC4(CN(C(=O)CN5Cc6cc7c(cc6C5)C(=O)N(C5CCC(=O)NC5=O)C7)C4)C3)cc2F)N1CC(F)F (stereo partly drawn) [E 71, 3-(6-(2-(6-(4-((1R,3R)-2-(2,2-difluoroethyl)-3-methyl-2,3,4,9-tetrahydro-1H-pyrido[3,4-b]indol-1-yl)-3,5-difluorophenyl)-2,6-diazaspiro[3.3]heptan-2-yl)-2-oxoethyl)-1-oxo-3,5,6,7-tetrahydropyrrolo[3,4-f]isoindol-2(1H)-yl)piperidine-2,6-dione] | < 10 |
| C[C@@H]1Cc2cc(O)ccc2[C@@H](c2c(F)cc(N3CCC4(CCN(C(=O)CN5Cc6cc7c(cc6C5)C(=O)N(C5CCC(=O)NC5=O)C7=O)CC4)CC3)cc2F)N1CC(F)F (stereo partly drawn) [E 320, 6-(2-(9-(4-((1S,3R)-2-(2,2-difluoroethyl)-6-hydroxy-3-methyl-1,2,3,4-tetrahydroisoquinolin-1-yl)-3,5-difluorophenyl)-3,9-diazaspiro[5.5]undecan-3-yl)-2-oxoethyl)-2-(2,6-dioxopiperidin-3-yl)-6,7-dihydropyrrolo[3,4-f]isoindole-1,3(2H,5H)-dione] | < 10 |

same assay, conditions: compounds 16 hours, Table A does not say whether T47D or MCF7, read-out: Potency (DC50)

| SMILES | DC50 [nM] |
| --- | --- |
| C[C@@H]1Cc2c([nH]c3ccccc23)[C@@H](c2ccc(C3=CCC4(CC3)CCN(C(=O)CN3Cc5cc6c(cc5C3)C(=O)N(C3CCC(=O)NC3=O)C6=O)CC4)cc2F)N1CC(F)F (stereo partly drawn) [E 477, 6-(2-(9-(4-((1R,3R)-2-(2,2-difluoroethyl)-3-methyl-2,3,4,9-tetrahydro-1H-pyrido[3,4-b]indol-1-yl)-3-fluorophenyl)-3-azaspiro[5.5]undec-8-en-3-yl)-2-oxoethyl)-2-(2,6-dioxopiperidin-3-yl)-6,7-dihydropyrrolo[3,4-f]isoindole-1,3(2H,5H)-dione] | > 100 |
